Measured values: patent publication US6069177A, “3-Hydroxy-propanamine derived neuronal reuptake inhibitors” (priority 1997, dated 2000)
Entries after “also recorded” stand apart in the source; their conditions may differ. Where two headings read alike, the source gives them in different places.

Key:
[1] = target: T1, DA reuptake into rat brain synaptosomes (Rattus norvegicus, UniProt P23977); test: DA reuptake inhibition in rat brain synaptosomes; format: biochemical, rat (male Sprague-Dawley), striatal tissue; conditions: for DA (Rat) Reuptake Inhibition Potency: Ki (DA)/Ki (compound or drug), Prozac to Serzone derived from literature Ki
T1 construct: A crude synaptosomal (P2) fraction was prepared; tissue Harlan Sprague-Dawley (animals); host or cells: rat striatum, crude synaptosomal (P2) fraction
T1 sequence (P23977 whole entry): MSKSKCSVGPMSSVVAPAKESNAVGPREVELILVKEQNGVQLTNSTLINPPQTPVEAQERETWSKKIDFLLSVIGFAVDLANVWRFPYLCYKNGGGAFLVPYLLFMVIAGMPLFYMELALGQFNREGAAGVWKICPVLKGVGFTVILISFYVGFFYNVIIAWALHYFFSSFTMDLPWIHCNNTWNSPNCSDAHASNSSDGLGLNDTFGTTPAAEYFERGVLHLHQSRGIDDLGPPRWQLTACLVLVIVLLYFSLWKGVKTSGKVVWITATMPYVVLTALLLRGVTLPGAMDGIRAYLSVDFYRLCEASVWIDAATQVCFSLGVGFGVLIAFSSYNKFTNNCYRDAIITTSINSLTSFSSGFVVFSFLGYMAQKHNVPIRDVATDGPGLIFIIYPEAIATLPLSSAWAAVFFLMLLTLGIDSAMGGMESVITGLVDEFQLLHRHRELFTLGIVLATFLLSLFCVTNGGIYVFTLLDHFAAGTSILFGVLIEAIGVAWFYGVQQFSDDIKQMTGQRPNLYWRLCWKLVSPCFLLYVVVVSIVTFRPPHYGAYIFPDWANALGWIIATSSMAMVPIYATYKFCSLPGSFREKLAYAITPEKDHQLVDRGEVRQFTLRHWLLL

[2] = test system: 5-HT, NE and DA reuptake into rat brain synaptosomes; format: biochemical, rat (male Sprague-Dawley); conditions: for block uptake of all three neurotransmitters (5-HT, NE, and DA), Ki in words: rat brain synaptosomes
Protocol: (§1) Briefly, the tissue was homogenized in 20 volumes of ice-cold 0.32 M sucrose containing 11 mM glucose, pH 7.4 in a glass Potter-Elvehjemhomogenizer with teflon pestle (8 strokes, 900 rpm). The homogenate was centrifuged at 1,000 g for 10 minutes. The resulting supernatant was then centrifuged at 20,000 g for 20 minutes and the supernatent was discarded.
(§2) Briefly, synaptosomal protein (1.0-2.5 mg) was suspended in a total volume of 1 mL containing oxygenated incubation buffer, 10 μM pargyline to inhibit monoamine oxidase activity, 0.2 mg/mL sodium ascorbate and varying concentrations of other compounds or drugs as indicated in the text. […] After a 5 minute preincubation at 37° C. in a shaking water bath (80 oscillations/minute), the uptake was initiated by the addition of […]. The reaction was stopped after 5 minute by adding 4 mL ice-cold 0.9% (w/v) sodium chloride and rapidly filtered through a Whatman GF/B glass fiber filter in a 48-place Brandel cell harvester. The filter was then washed with an additional 8 mL of wash buffer, placed in a scintillation vial containing 5 mL of Redi-Safe (Beckman Instruments, Fullerton, Calif.) and counted. Specific uptake was calculated as the difference between the total uptake (zero unlabelled ligand) and nonspecific uptake (excess unlabelled ligand).

[3] = target: T2, human serotonin transporter (hSERT) (Homo sapiens, UniProt P31645); format: binding
T2 construct: expressed in transfected cells; membranes of cells expressing the cloned hSERT
T2 sequence (P31645 whole entry): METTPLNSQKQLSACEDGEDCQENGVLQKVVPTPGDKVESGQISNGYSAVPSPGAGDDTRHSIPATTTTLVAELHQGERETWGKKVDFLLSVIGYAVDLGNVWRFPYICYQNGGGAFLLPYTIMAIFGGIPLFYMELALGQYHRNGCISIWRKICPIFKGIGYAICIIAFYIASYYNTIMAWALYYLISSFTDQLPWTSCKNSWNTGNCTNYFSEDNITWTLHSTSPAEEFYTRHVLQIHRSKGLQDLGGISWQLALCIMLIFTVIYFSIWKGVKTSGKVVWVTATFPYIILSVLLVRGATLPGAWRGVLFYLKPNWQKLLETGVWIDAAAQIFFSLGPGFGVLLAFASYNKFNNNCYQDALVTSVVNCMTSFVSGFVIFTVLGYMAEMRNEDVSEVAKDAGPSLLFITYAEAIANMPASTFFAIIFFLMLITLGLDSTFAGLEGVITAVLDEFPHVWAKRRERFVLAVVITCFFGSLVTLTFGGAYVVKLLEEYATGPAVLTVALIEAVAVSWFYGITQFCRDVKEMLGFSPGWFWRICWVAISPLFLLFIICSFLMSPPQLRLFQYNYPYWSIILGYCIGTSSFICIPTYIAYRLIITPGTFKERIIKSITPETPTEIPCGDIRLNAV
Protocol: (§3) These transporters are responsible for neuronal reuptake of the neurotransmitters.
(§4) Cells were incubated in 10% CO2, 90% air at 37° C. and 100% humidity. The selecting antibiotic geneticin sulfate (250 μg/ml) was used during the cell culture for the hNET only.
(§5) For the preparation of homogenates, medium was removed by aspiration. […] Cells were then scraped from the surface with a rubber spatula into a centrifuge tube and collected by centrifugation at 1000×g for 5 min at 4° C. Supernatants were decanted and the pellet was resuspended in the appropriate binding buffer and homogenized with the use of a Polytron for 10 sec at setting 6. This solution was centrifuged at about 36,000×g for 10 minutes (4° C.). The pellet was suspended in the same volume of buffer and the centrifugation was repeated. The supernatants were decanted and the final pellet was suspended in the appropriate buffer and stored at -80° C. until use.
(§6) For the membranal preparation, cells were homogenized in 50 mM Tris-HCl with 120 mM NaCl and 5 mM KC1 (pH 7.4). […] The reaction mixture was incubated at 22° C. for 30 min. The assay was terminated by rapid filtration of the contents of each tube through a GF/B filter strip, which had been pretreated with 0.2% polyethylenimine, with the use of a 48-well Brandel cell harvester. The filter strips were then rinsed five times with ice-cold 0.9% NaCl. Next, individual filters were cut from the strip and placed in a scintillation vial containing 6.5 mL of Redi-Safe (Beckman Instruments, Fullerton, Calif.). Radioactivity was measured with a Beckman liquid scintillation counter (LS 5000TD).
(§7) The program was modified by the inventors to calculate the Hill Coefficient (nH). […] One-component models and two-component models were compared using the root mean square error of each fit and the F test.

[4] = target: human norepinephrine transporter (hNET) (Homo sapiens, UniProt P23975); format: binding
Chain of human norepinephrine transporter (hNET) (P23975 whole entry): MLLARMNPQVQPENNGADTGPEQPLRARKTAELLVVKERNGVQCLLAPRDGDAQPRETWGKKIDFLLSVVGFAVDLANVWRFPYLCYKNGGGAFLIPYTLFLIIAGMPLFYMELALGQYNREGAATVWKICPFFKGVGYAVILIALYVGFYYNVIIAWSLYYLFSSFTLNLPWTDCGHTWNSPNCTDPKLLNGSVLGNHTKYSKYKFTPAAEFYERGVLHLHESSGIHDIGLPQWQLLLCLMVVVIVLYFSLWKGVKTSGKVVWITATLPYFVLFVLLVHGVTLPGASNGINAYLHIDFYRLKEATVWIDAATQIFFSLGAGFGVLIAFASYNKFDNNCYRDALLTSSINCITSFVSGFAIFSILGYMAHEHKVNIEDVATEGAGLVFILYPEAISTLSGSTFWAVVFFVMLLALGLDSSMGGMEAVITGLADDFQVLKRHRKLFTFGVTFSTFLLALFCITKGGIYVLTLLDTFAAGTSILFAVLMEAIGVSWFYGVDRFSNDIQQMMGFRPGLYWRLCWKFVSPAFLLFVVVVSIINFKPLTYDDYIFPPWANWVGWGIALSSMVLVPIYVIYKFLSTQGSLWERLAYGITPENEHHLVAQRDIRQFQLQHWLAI

[5] = target: T3, human dopamine transporter (hDAT) (Homo sapiens, UniProt Q01959); test: [3H]WIN35428 binding to cloned human DAT; conditions: Kd (DA)/Kd (compound or drug) in the hDAT binding assay
T3 construct: expressed in transfected cells; membranes of cells expressing the cloned hDAT
T3 sequence (Q01959 whole entry): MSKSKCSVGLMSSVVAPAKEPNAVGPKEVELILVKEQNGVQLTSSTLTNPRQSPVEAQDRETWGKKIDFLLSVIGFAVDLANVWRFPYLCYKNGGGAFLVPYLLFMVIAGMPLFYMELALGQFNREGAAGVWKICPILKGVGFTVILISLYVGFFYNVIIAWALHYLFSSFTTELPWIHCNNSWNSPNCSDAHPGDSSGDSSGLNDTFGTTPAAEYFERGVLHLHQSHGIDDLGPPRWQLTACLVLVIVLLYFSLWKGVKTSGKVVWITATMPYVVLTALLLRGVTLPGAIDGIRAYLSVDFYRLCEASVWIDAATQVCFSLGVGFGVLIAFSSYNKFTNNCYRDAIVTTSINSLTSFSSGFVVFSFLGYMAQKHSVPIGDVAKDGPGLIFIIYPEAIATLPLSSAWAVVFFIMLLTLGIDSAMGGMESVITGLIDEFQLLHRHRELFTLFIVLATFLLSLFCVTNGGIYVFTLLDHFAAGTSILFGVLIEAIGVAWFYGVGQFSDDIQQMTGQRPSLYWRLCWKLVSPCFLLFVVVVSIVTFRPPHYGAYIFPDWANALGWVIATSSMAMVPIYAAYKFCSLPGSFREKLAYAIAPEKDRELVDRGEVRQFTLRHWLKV
Protocol: as §3, §4, §5
(§8) For the membranal preparation, cells were homogenized in the 50 mM Tris-HCl with 120 mM NaCl (pH 7.4). […] The reaction mixture was incubated at 4° C. for 2 hr. The remaining methods were exactly as described for hSERT above.
as §7

[6] = test system: hSERT, hNET, and hDAT; test: Simultaneous binding to cloned human transporters hSERT, hNET and hDAT; conditions: for Simultaneous Transporter Binding Potency: Table 4, each of the potency values greater than 7.0; for Simultaneous Transporter Binding Potency (Human): Table 5, comparison of rat and human data; for simultaneous transporter binding potency, in words: human, each value ≥7.0
Protocol: as §3, §4, §5, §6
For the membranal preparation, cells were homogenized in 50 mM Tris-HCl with 300 mM NaCl and 5 mM KCl (pH 7.4). […] The reaction mixture was incubated at 22° C. for 60 min. The remaining methods were exactly as described for hSERT above.
as §8, §7

[7] = target: T4, 5-HT reuptake into rat brain synaptosomes (Rattus norvegicus, UniProt P31652); test: 5-HT reuptake inhibition in rat brain synaptosomes; format: biochemical, rat (male Sprague-Dawley), cortical tissue; conditions: Ki (5-HT)/Ki (compound or drug); Prozac to Serzone derived from literature Ki
T4 construct: A crude synaptosomal (P2) fraction was prepared; tissue Harlan Sprague-Dawley (animals); host or cells: rat cerebral cortex, crude synaptosomal (P2) fraction
T4 sequence (P31652 whole entry): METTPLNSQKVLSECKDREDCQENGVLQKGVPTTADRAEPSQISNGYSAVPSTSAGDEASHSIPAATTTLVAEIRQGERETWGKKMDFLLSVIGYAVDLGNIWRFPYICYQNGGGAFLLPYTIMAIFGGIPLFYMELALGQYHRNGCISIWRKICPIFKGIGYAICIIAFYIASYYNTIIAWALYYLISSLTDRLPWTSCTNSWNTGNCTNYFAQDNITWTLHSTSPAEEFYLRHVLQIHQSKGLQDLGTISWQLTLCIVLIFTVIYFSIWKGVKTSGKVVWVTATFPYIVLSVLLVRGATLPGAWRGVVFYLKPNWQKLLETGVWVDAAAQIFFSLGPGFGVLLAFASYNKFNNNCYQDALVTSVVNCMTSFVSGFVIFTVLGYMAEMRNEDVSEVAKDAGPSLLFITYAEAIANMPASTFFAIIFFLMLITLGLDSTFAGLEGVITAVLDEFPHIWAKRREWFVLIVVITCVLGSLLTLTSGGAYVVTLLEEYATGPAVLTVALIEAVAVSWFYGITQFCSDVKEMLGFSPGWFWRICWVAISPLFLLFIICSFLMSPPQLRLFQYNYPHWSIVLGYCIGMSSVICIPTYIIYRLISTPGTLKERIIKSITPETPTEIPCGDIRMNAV
Protocol: as §1, §2

[8] = target: T5, NE reuptake into rat brain synaptosomes (Rattus norvegicus, UniProt Q63380); test: biochemical; design: species or system rat (male Sprague-Dawley), hippocampal tissue
T5 construct: A crude synaptosomal (P2) fraction was prepared; tissue Harlan Sprague-Dawley (animals); host or cells: rat hippocampus, crude synaptosomal (P2) fraction
T5 sequence (Q63380 1-617): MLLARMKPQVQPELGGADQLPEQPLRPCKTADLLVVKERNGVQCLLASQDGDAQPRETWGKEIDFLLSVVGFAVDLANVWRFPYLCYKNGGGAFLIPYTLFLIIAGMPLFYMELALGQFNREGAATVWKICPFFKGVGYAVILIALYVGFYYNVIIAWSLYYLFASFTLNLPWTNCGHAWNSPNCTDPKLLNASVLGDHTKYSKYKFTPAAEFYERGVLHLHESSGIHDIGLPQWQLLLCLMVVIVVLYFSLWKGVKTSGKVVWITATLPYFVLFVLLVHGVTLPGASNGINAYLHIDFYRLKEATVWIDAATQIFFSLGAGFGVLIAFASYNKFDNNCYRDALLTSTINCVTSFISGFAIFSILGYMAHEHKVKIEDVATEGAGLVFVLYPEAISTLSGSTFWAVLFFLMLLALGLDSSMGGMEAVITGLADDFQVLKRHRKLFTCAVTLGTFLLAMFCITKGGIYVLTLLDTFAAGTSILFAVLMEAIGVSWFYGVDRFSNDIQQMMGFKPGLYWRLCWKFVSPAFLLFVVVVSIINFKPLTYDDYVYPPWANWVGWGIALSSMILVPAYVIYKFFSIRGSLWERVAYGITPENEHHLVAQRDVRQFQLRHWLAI

[9] = target: T5, NE reuptake into rat brain synaptosomes; conditions: cited from earlier work
[10] = Table 5, comparison of rat and human data
[11] = Kd (5-HT)/Kd (compound or drug) in the hSERT binding assay
[12] = Kd (NE)/Kd (compound or drug) in the hNET binding assay
[13] = Ki (NE)/Ki (compound or drug), Prozac to Serzone derived from literature Ki

Compound	DA (Rat) Reuptake Inhibition Potency [1]	Simultaneous Reuptake Inhibition Potency [2]	Simultaneous Reuptake Inhibition Potency (Rat) [2, 10]	hSert Binding Potency [3, 11]	hNet Binding Potency [4, 12]	hDAT Binding Potency [5]	Simultaneous Transporter Binding Potency [6]	Simultaneous Transporter Binding Potency (Human) [6]	Simultaneous Reuptake Inhibition Potency (Rat) [2]	simultaneous reuptake inhibition potency, in words [2]	block uptake of all three neurotransmitters (5-HT, NE, and DA), Ki in words [2]	simultaneous transporter binding potency, in words [6]	other results
CCc1nn(CCCN2CCN(c3cccc(Cl)c3)CC2)c(=O)n1CCOc1ccccc1 [Serzone ®, reference compound]	0.03	–	–	–	–	–	–	–	–	–	–	–	Simultaneous Reuptake Inhibition Potency ([2]; Table 2, each of the potency values greater than 1.0): no
CC(C)(C)[C@@H](O)[C@H](CN)c1ccc2ccccc2c1 (relative stereo) [Compound C, (2RS,3RS)-3-hydroxy-4,4-dimethyl-2-(2'-naphthyl)pentyl-ammonium chloride]	0.57	no	no	347	39.9	0.09	no	no	–	–	–	–	–
CNCCC(Oc1ccc(C(F)(F)F)cc1)c1ccccc1 (centres unmarked) [Prozac ®, reference compound]	0.02	no	–	–	–	–	–	–	no	–	–	–	–
COc1ccc([C@H](CN(C)C)[C@@H](O)C2CCCCC2)cc1.Cl (racemic) [Compound E, (2RS,3SR)-3-Cyclohexyl-3-hydroxy-2-(4'-methoxyphenyl)-propyl-N,N-dimethylammonium chloride]	0.10	no	no	–	1.24	0.69	no	no	–	–	–	–	5-HT (Rat) Reuptake Inhibition Potency [7]: 0.62; NE (Rat) Reuptake Inhibition Potency [8, 13]: 0.54; hSert Binding Potency [3]: 70
NC[C@H](c1ccc2ccccc2c1)[C@H](O)c1ccccc1 (relative stereo) [Compound D, (2RS,3RS)-3-Hydroxy-2-(2'-naphthyl)-3-phenyl-propylammoni um chloride]	–	no	no	340	–	16.8	yes (A compound or drug is considered to possess "simultaneous transporter binding potency" if each of the potency values is greater than 7.0.)	yes (A compound or drug is considered to possess "simultaneous transporter binding potency" if each of the potency values is greater than 7.0.)	–	narrowly misses the criterion for simultaneous reuptake inhibition potency	nanomolar to 10 nanomolar range	qualify for simultaneous transporter binding potency; also recorded: meets the criterion for simultaneous transporter binding potency	5-HT (Rat) Reuptake Inhibition Potency [7]: 0.68
CNCC[C@@H](Oc1ccccc1C)c1ccccc1 [Tomoxetine, reference compound]	–	no	–	–	–	–	–	–	–	–	–	–	–
COc1ccc(C(CN(C)C)C2(O)CCCCC2)cc1 (centres unmarked) [Effexor ®, reference compound]	0.18	no	–	–	–	–	–	–	no	–	–	–	–
Fc1ccc([C@@H]2CCNC[C@H]2COc2ccc3c(c2)OCO3)cc1 [Paxil ®, reference compound]	–	no	–	–	–	–	–	–	no	–	–	–	NE (Rat) Reuptake Inhibition Potency [8]: 3.61; hNet Binding Potency [4]: 55; Ki [9]: 0.033 ± 0.002 µM
CN(C)C[C@H](c1ccc2ccccc2c1)[C@H](O)c1ccccc1 (relative stereo) [Compound B, (2RS,3RS)-3-Hydroxy-2-(2'-naphthyl)-3-phenylpropyl-N, N-dimethylammonium chloride]	–	yes (A compound or drug is considered to possess simultaneous reuptake inhibition potency if each of the potency values is greater than 1.0.)	yes (A compound or drug is considered to possess simultaneous reuptake inhibition potency if each of the potency values is greater than 1.0.)	–	–	34.3	yes (A compound or drug is considered to possess "simultaneous transporter binding potency" if each of the potency values is greater than 7.0.)	yes (A compound or drug is considered to possess "simultaneous transporter binding potency" if each of the potency values is greater than 7.0.)	–	possess the quality of "simultaneous reuptake inhibition potency"	nanomolar to 10 nanomolar range	qualify for simultaneous transporter binding potency	reuptake inhibition of all three neurotransmitters in both the rat and human models, in words [2]: potently inhibit reuptake of all three neurotransmitters in both the rat and human models; hSert Binding Potency [3]: 376; simultaneous transporter binding potency, tightened criterion ([6]; all potency values must be greater than 30): still qualifies
CN(C)C[C@H](c1ccc2ccccc2c1)[C@H](O)C(C)(C)C (relative stereo) [Compound A, (2RS,3RS)-3-Hydroxy-4,4-dimethyl-2-(2'-naphthyl)pentyl-N, N-dimethyl-ammonium chloride]	1.11	yes (A compound or drug is considered to possess simultaneous reuptake inhibition potency if each of the potency values is greater than 1.0.)	yes (A compound or drug is considered to possess simultaneous reuptake inhibition potency if each of the potency values is greater than 1.0.)	1,750	73.6	7.16	yes (A compound or drug is considered to possess "simultaneous transporter binding potency" if each of the potency values is greater than 7.0.)	yes (A compound or drug is considered to possess "simultaneous transporter binding potency" if each of the potency values is greater than 7.0.)	–	possess the quality of "simultaneous reuptake inhibition potency"	nanomolar to 10 nanomolar range	qualify for simultaneous transporter binding potency	NE (Rat) Reuptake Inhibition Potency [8, 13]: 12.0; Ki ([8]; rat brain synaptosomes): 0.01 ± 0.001 µM; Ki ([1]; rat brain synaptosomes): 0.06 ± 0.01 µM; reuptake inhibition of all three neurotransmitters in both the rat and human models, in words [2]: potently inhibit reuptake of all three neurotransmitters in both the rat and human models
